Data taken from patent US9604996B2 (Bayer Pharma Aktiengesellschaft, priority 2013, dated 2017).
pIC50: −log10 of the molar value.

Target: T1, human adenosine A2b receptor (Homo sapiens, UniProt P29275)
T1 construct: expressed in transfected cells; host or cells: CHO-K1 (Chinese Hamster Ovary) with CRE-luciferase reporter
T1 sequence (P29275 1-332): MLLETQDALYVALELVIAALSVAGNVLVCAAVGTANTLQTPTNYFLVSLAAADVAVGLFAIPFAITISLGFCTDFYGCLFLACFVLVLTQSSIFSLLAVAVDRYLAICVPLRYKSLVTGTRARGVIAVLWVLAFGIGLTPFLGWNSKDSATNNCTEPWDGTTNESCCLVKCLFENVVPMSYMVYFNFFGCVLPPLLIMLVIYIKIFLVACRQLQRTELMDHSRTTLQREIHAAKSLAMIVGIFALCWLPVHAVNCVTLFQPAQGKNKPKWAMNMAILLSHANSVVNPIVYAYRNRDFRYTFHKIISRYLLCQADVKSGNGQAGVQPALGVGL
Experiment: Cellular reporter gene (CRE-luciferase) A2b receptor antagonist assay in recombinant CHO-K1 cells stimulated with NECA
Assay type: cell-based
Conditions: recombinant CHO-K1 cell line, co-incubation with EC50 concentration of NECA, 3 hours, in some cases means, rounded to two significant digits
Protocol: B-1. Cellular In Vitro Tests for Determining A2b Receptor Activity and Adenosine Receptor Selectivity
The identification of selective antagonists of the human adenosine A2b receptor and the quantification of the efficacy and selectivity of the compounds according to the invention was carried out with the aid of recombinant cell lines for the human adenosine receptors A1, A2a, A2b and A3. These cell lines were originally derived from an ovarepithelial cell of the hamster (Chinese Hamster Ovary, CHO-K1, American Type Culture Collection, Manassas, Va. 20108, USA). In addition to the respective recombinantly expressed adenosine receptor for testing the efficacy at the A1, A2a and A2b receptors, the cell lines contain a reporter gene construct where expression of the firefly (Photinus pyralis) luciferase is under the control of a promoter which can be activated via intracellular signal cascades by stimulation of the receptors with the (not subtype-selective) adenosine receptor agonist NECA (5′-N-ethylcarboxamidoadenosine) [S. J. Hill, J. G. Baker, S. Rhees, Curr. Opin. Pharmacol. 1, 526-532 (2001)].
In the case of the A2a and A2b cell lines, this is a minimal promoter having a plurality of cAMP-responsive elements (CRE). Stimulation of the Gs coupled A2b or A2a receptors by NECA ultimately leads, via formation of cAMP, to CRE-dependent induction of luciferase expression, which is detected 3 hours after the start of the incubation with NECA using a detection solution in a suitable luminometer. For testing the antagonists, initially, in a pre-experiment, the concentration of NECA which, at the test day in question, results in half-maximum stimulation of luciferase expression (EC50 concentration) is determined By joint incubation of this EC50 concentration of NECA with the substances to be tested, it is possible to determine their antagonistic activity.

| SMILES | pIC50 |
| --- | --- |
| CCn1c(=O)c2c(C)c(C(=O)N3CCC(O)(CC)CC3)sc2n(CCOC(F)(F)F)c1=O [Example 112, 3-Ethyl-6-[(4-ethyl-4-hydroxypiperidin-1-yl)carbonyl]-5-methyl-1-[2-(trifluoromethoxy)ethyl]thieno[2,3-d]pyrimidine-2,4(1H,3H)-dione] | 8.10 |
| CCn1c(=O)c2c(C)c(C(=O)N3CCC(O)C(O)C3)sc2n(CCC(F)(F)F)c1=O (racemic) [Example 119, 6-[(3,4-Dihydroxypiperidin-1-yl)carbonyl]-3-ethyl-5-methyl-1-(3,3,3-trifluoropropyl)thieno [2,3-d]pyrimidine-2,4(1H,3H)-dione] | 6.68 |
| C=C(Cn1c(=O)n(CC)c(=O)c2c(C)c(C(=O)N3CCC(O)CC3)sc21)C(F)(F)F [Example 58, 3-Ethyl-6-[(4-hydroxypiperidin-1-yl)carbonyl]-5-methyl-1-[2-(trifluoromethyl)prop-2-en-1-yl]thieno[2,3-d]pyrimidine-2,4(1H,3H)-dione] | 6.42 |
| CCn1c(=O)c2c(C)c(C(=O)N3CC4CCCC(C3)C4O)sc2n(CCC(F)(F)F)c1=O (stereo not drawn) [Example 72, 3-Ethyl-6-[(9-hydroxy-3-azabicyclo[3.3.1]non-3-yl)carbonyl]-5-methyl-1-(3,3,3-trifluoropropyl)thieno[2,3-d]pyrimidine-2,4(1H,3H)-dione (α-epimer)] | 7.77 |
| Cc1c(C(=O)N2CCC(O)CC2)sc2c1c(=O)n(CCn1ccnc1)c(=O)n2CCC(F)(F)F [Example 55, 6-[(4-Hydroxypiperidin-1-yl)carbonyl]-3-[2-(1H-imidazol-1-yl)ethyl]-5-methyl-1-(3,3,3-trifluoropropyl)thieno[2,3-d]pyrimidine-2,4(1H,3H)-dione] | 6.60 |
| CCCn1c(=O)c2c(C)c(C(=O)N3CCNC(=O)C3)sc2n(CCOC(F)(F)F)c1=O [Example 96, 5-Methyl-6-[(3-oxopiperazin-1-yl)carbonyl]-3-propyl-1-[2-(trifluoromethoxy)ethyl]thieno[2,3-d]pyrimidine-2,4(1H,3H)-dione] | 7.19 |
| O=C(c1cc2c(=O)n(CCc3ccccc3)c(=O)n(CCC(F)(F)F)c2s1)N1CCC(O)CC1 [Example 90, 6-[(4-Hydroxypiperidin-1-yl)carbonyl]-3-(2-phenylethyl)-1-(3,3,3-trifluoropropyl)thieno[2,3-d]pyrimidine-2,4(1H,3H)-dione] | 6.36 |
| CCn1c(=O)c2c(C(C)F)c(C(=O)N3CCNC(=O)C3)sc2n(CCC(F)(F)F)c1=O (single isomer, unassigned) [Example 149, 3-Ethyl-5-(1-fluoroethyl)-6-[(3-oxopiperazin-1-yl)carbonyl]-1-(3,3,3-trifluoropropyl)thieno[2,3-d]pyrimidine-2,4(1H,3H)-dione] | 6.49 |
| CCn1c(=O)c2c(C)c(C(=O)N3CCC(O)(CC)CC3)sc2n(CCC(F)(F)F)c1=O [Example 113, 3-Ethyl-6-[(4-ethyl-4-hydroxypiperidin-1-yl)carbonyl]-5-methyl-1-(3,3,3-trifluoropropyl)thieno[2,3-d]pyrimidine-2,4(1H,3H)-dione] | 7.15 |
| CCc1c(C(=O)N2CCNC(=O)C2)sc2c1c(=O)n(CC)c(=O)n2CCC(F)(F)F [Example 98, 3,5-Diethyl-6-[(3-oxopiperazin-1-yl)carbonyl]-1-(3,3,3-trifluoropropyl)thieno[2,3-d]pyrimidine-2,4(1H,3H)-dione] | 7.00 |
| C#CCCn1c(=O)c2c(C)c(C(=O)N3CCC(O)CC3)sc2n(CCC(F)(F)F)c1=O [Example 61, 3-(But-3-yn-1-yl)-6-[(4-hydroxypiperidin-1-yl)carbonyl]-5-methyl-1-(3,3,3-trifluoropropyl)thieno[2,3-d]pyrimidine-2,4(1H,3H)-dione] | 7.77 |
| Cc1c(C(=O)N2CCNC(=O)C2)sc2c1c(=O)n(CC(F)(F)c1ccccc1)c(=O)n2CCC(F)(F)F [Example 93, 3-(2,2-Difluoro-2-phenylethyl)-5-methyl-6-[(3-oxopiperazin-1-yl)carbonyl]-1-(3,3,3-trifluoropropyl)thieno[2,3-d]pyrimidine-2,4(1H,3H)-dione] | 7.44 |
| CCCn1c(=O)c2c(C)c(C(=O)N3CCC(O)(CO)CC3)sc2n(CCOC(F)(F)F)c1=O [Example 80, 6-{[4-Hydroxy-4-(hydroxymethyl)piperidin-1-yl]carbonyl}-5-methyl-3-propyl-1-[2-(trifluoromethoxy)ethyl]thieno[2,3-d]pyrimidine-2,4(1H,3H)-dione] | 7.57 |
| Cc1c(C(=O)N2CCC(O)(CO)CC2)sc2c1c(=O)n(CCc1ccccc1)c(=O)n2CCC(F)(F)F [Example 68, 6-{[4-Hydroxy-4-(hydroxymethyl)piperidin-1-yl]carbonyl}-5-methyl-3-(2-phenylethyl)-1-(3,3,3-trifluoropropyl)thieno[2,3-d]pyrimidine-2,4(1H,3H)-dione] | 7.70 |
| CCc1c(C(=O)N2CCC(O)(CC)CC2)sc2c1c(=O)n(CC)c(=O)n2CCC(F)(F)F [Example 128, 3,5-Diethyl-6-[(4-ethyl-4-hydroxypiperidin-1-yl)carbonyl]-1-(3,3,3-trifluoropropyl)thieno[2,3-d]pyrimidine-2,4(1H,3H)-dione] | 7.89 |
| CCn1c(=O)c2c(C)c(C(=O)N3CCNC(=O)C3)sc2n(CCC=C(F)F)c1=O [Example 36, 1-(4,4-Difluorobut-3-en-1-yl)-3-ethyl-5-methyl-6-[(3-oxopiperazin-1-yl)carbonyl]thieno[2,3-d]pyrimidine-2,4(1H,3H)-dione] | 6.70 |
| CC1(O)CCN(C(=O)c2cc3c(=O)n(CCc4ccccc4)c(=O)n(CCC(F)(F)F)c3s2)CC1 [Example 91, 6-[(4-Hydroxy-4-methylpiperidin-1-yl)carbonyl]-3-(2-phenylethyl)-1-(3,3,3-trifluoropropyl)thieno[2,3-d]pyrimidine-2,4(1H,3H)-dione] | 6.59 |
| CC1(O)CCN(C(=O)c2sc3c(c2C(F)F)c(=O)n(CCc2ccccc2)c(=O)n3CCC(F)(F)F)CC1 [Example 85, 5-(Difluoromethyl)-6-[(4-hydroxy-4-methylpiperidin-1-yl)carbonyl]-3-(2-phenylethyl)-1-(3,3,3-trifluoropropyl)thieno[2,3-d]pyrimidine-2,4(1H,3H)-dione] | 8.02 |
| CCn1c(=O)c2c(C(F)(F)F)c(C(=O)N3CCC(O)CC3)sc2n(CCC(F)(F)F)c1=O [Example 25, 3-Ethyl-6-[(4-hydroxypiperidin-1-yl)carbonyl]-5-(trifluoromethyl)-1-(3,3,3-trifluoropropyl)thieno[2,3-d]pyrimidine-2,4(1H,3H)-dione] | 7.31 |
| COCCn1c(=O)n(CCc2ccccc2)c(=O)c2c(C)c(C(=O)N3CCNC(=O)C3)sc21 [Example 28, 1-(2-Methoxyethyl)-5-methyl-6-[(3-oxopiperazin-1-yl)carbonyl]-3-(2-phenylethyl)thieno[2,3-d]pyrimidine-2,4(1H,3H)-dione] | 6.82 |
| CC(C)Cn1c(=O)c2c(C(F)F)c(C(=O)N3CCC(C)(O)CC3)sc2n(CCC(F)(F)F)c1=O [Example 140, 5-(Difluoromethyl)-6-[(4-hydroxy-4-methylpiperidin-1-yl)carbonyl]-3-isobutyl-1-(3,3,3-trifluoropropyl)thieno[2,3-d]pyrimidine-2,4(1H,3H)-dione] | 7.41 |
| CCn1c(=O)c2c(C)c(C(=O)N3CCNC(=O)C3)sc2n(CCOC(F)(F)F)c1=O [Example 130, 3-Ethyl-5-methyl-6-[(3-oxopiperazin-1-yl)carbonyl]-1-[2-(trifluoromethoxy)ethyl]thieno[2,3-d]pyrimidine-2,4(1H,3H)-dione] | 8.05 |
| COCCn1c(=O)n(CC(F)(F)c2ccccc2)c(=O)c2c(C)c(C(=O)N3CCC(O)CC3)sc21 [Example 52, 3-(2,2-Difluoro-2-phenylethyl)-6-[(4-hydroxypiperidin-1-yl)carbonyl]-1-(2-methoxyethyl)-5-methylthieno[2,3-d]pyrimidine-2,4(1H,3H)-dione] | 6.68 |
| CCCn1c(=O)c2c(C)c(C(=O)N3CCNC(=O)C3)sc2n(CCC(F)(F)F)c1=O [Example 95, 5-Methyl-6-[(3-oxopiperazin-1-yl)carbonyl]-3-propyl-1-(3,3,3-trifluoropropyl)thieno [2,3-d]pyrimidine-2,4(1H,3H)-dione] | 6.85 |
| CCCn1c(=O)c2c(C)c(C(=O)N3CCC(O)(CO)CC3)sc2n(CCOC)c1=O [Example 78, 6-{[4-Hydroxy-4-(hydroxymethyl)piperidin-1-yl]carbonyl}-1-(2-methoxyethyl)-5-methyl-3-propylthieno[2,3-d]pyrimidine-2,4(1H,3H)-dione] | 6.46 |
